Converted amounts (≈) assume the structure as drawn. Like-named read-outs stand apart in the source and are kept apart here.

In data set [1] the test system is Staphylococcus aureus (SA). The data set can be described thus: Preservation efficacy test (PET), European Pharmacopoeia 5.1.3. The format is cell-based. As to the method: (§1) The preservation efficacy test (PET) was performed in accordance with European Pharmacopoeia § 5.1.3: The test is a reference European Pharmacopoeia method, that is to be used to evaluate the preservation system of a cosmetic or pharmaceutical preparation. The test consists of challenging the preparation under test, with prescribed inoculums of suitable microorganisms. The preservation porperties of the preparation are adequate if, in the conditions of the test, there is a significant fall or no increase, as appropriate, in the number of microorganisms in the inoculated preparations after the time prescribed.
(§2) The test microorganisms which were used, are the following:
(§3) Pseudomonas aeruginosa (PA) (bacterium); Staphylococcus aureus (SA) (bacterium); Escherichia coli (EC) (bacterium); Candida albicans (CA) (yeast); and Aspergillus brasiliensis (AB) (fungus).

Data set [2] has as its system Pseudomonas aeruginosa (PA). Described as above. The format is cell-based. As to the method:
as §1, §2, §3

Data set [3] deals with Aspergillus brasiliensis (AB). The data set is described as above. Type of data set: cell-based. How it is done:
as §1, §2, §3

In a further data set the test system is Candida albicans (CA). Described as above. The format is cell-based. As to the method: as §1, §2, §3
Another data set has as its system Escherichia coli (EC). The data set is described as above. The format is cell-based. As to the method: as §1, §2, §3
Data set [4] can be described thus: Sensory evaluation on the backside of the hand (spreading, fatty/greasy skin feel, absorption), untrained panellists. The settings on record: for Absorption/remaining residue with alkanediol: scale 1 to 5. As to the method:
For evaluating the sensory behaviour, liquid lipophilic components specified in the following table were blended with 1,2-heptanediol or 2,3-heptanediol or a mixture of 1,2-heptanediol and 2,3-heptanediol or 1,2-octanediol or 2,3-octanediol or a mixture of 1,2-octanediol and 2,3-octanediol (formulation) in a ratio of 85:15 and assessed by untrained panellists in comparison to the liquid lipophilic component without addition of the specified alkanediols (placebo).
The test procedure was carried as follows: For evaluating the sensory behaviour of 1,2-alkanediols and/or 2,3-alkanediols in combination with different liquid lipophilic components, oil components specified in the following table were blended with a 1,2-alkanediol or a 2,3-alkanediol or a mixture including a 1,2-alkanediol and a 2,3-alkanediol in a ratio as specified in Table 53 and assessed by untrained panellists in comparison to the liquid lipophilic component without addition of the 1,2-alkanediol or 2,3-alkanediol or the mixture including a 1,2-alkanediol and 2,3-alkanediol (placebo).
Test Procedure: • Hands were pre-washed with liquid soap by following a defined procedure; 30 μl of corresponding sample was applied on the backside of each hand (randomized); • After 30 s the spreading behaviour of the respective formulation on skin was evaluated versus the respective oil component without 1,2-heptanediol on a scale from 1 to 5 (1=low spreading; 5=high spreading); • The samples were distributed with the fingertips of middle and forefinger with 2×5 cycles; • After 2 minutes, the fatty/greasy skin feel was evaluated on a scale from 1 to 5 (1=low fatty/greasy skin feel; 5=high fatty/greasy skin feel); • Furthermore the applicants were asked to assess the absorption, i.e. the impression of amount of remaining residue on the skin on a scale from 1 to 5 (1=low absorption; 5=high absorption).

The next data set has as its system Aspergillus brasiliensis. As to the kind of experiment: MIC and Kull synergy index of 1,2-/2,3-alkanediol mixtures. The format is cell-based.
The next data set has as its system Staphylococcus aureus. The data set can be described thus: MIC test (growth inhibition, 96 well plates, OD). The format is cell-based. The settings on record: read-out: Minimum Inhibitory Concentration (MIC). As to the method: (§4) The MIC test is a test on growth inhibition. Estimation of Minimum Inhibitory Concentration (MIC) is executed in 96 well plates. Through the comparison of bacterial growth with positive and negative controls via optical density (OD), different concentrations of given test substances are evaluated.
(§5) Bacteria are cultivated under adjusted conditions based on information of the German Collection of Microorganisms and Cell Cultures (DSMZ) and stored in 50% Glycerol prior to use. Afterwards, the following method was applied: Adding growth medium (according to microorganism) to each well of the microplate. Adding the test-substances in different concentrations, positive controls (water controls only with medium) and negative controls (benchmarks according to organism). Adding the microorganism in a concentration of 10^6 CFU/ml (CFU=colony forming units). Incubation of the microplates at appropriate conditions.
(§6) According to resulting growth, substance concentrations are labelled either as inhibiting or not and MIC is defined as the lowest concentration where a complete growth inhibition is visible. Experiments at concentration limits (highest concentration labelled as growth and lowest concentration labelled as inhibiting) are performed at least twice.

The subject of the next data set is Escherichia coli. As to the kind of experiment: MIC test (growth inhibition, 96 well plates, OD). The settings on record: read-out: Minimum Inhibitory Concentration (MIC). The format is cell-based. As to the method: as §4, §5, §6
The next data set has as its system Candida albicans. As to the kind of experiment: MIC test (growth inhibition, 96 well plates, OD). Type of data set: cell-based. The settings on record: read-out: Minimum Inhibitory Concentration (MIC). How it is done: as §4, §5, §6
In the next data set the test system is Staphylococcus hominis. The data set can be described thus: MIC test (growth inhibition, 96 well plates, OD). The format is cell-based. The conditions noted are these: read-out: Minimum Inhibitory Concentration (MIC). How it is done:
as §4, §5, §6

Another data set has as its system Corynebacterium jeikeium. The data set can be described thus: MIC test (growth inhibition, 96 well plates, OD). The format is cell-based. The settings on record: read-out: Minimum Inhibitory Concentration (MIC). As to the method:
as §4, §5, §6

For the next data set, the system named is human sebaceous glands. The data set can be described thus: Sebum production of micro-dissected, cultured human sebaceous glands (lipids/proteins after six days). The conditions noted are these: compared to untreated control; six days; single donor (FIG. 4). Type of data set: cell-based. On the set-up: sebum reduction: concentration or dose not given beside the values. As to the method:
Additional tests were performed with human sebaceous glands in order to verify the modulatory activity of different 1,2-alkanediols and 2,3-alkanediols on sebum secretion. Several microbial species on the skin are lipid dependent and feed on the human sebum (e.g. Corynebacterium, Propionibacterium). Accordingly, sebum reduction can indirectly support the reduction of microorganisms on the skin and in this way also indirectly support e.g. dandruff or acne reduction.
For these experiments sebaceous glands had been micro-dissected and cultured with medium. The medium without any supplement served as untreated control. Medium with 5 μM Capsaicin served as positive control. Additionally, culture medium was supplemented with different concentrations of alkanediols. After six days the sebaceous glands were collected and lipids and proteins quantified. The total lipid amount being representative of sebum production was obtained by normalizing the quantified lipids upon the quantified proteins (i.e. mg of lipids/mg of proteins).

A further data set deals with Propionibacterium acnes. The data set can be described thus: MIC test (growth inhibition, 96 well plates, OD). Type of data set: cell-based. The settings on record: Cutibacterium acnes; read-out: Minimum Inhibitory Concentration (MIC). How it is done: as §4, §5, §6
The mark [5] stands for this setting: single 1,2-alkanediol, read-out: MIC Component A.
Where [6] appears, read: blend with Caprylic Capric Triglyceride (CCT) (neutral oil), rows r187-r195, vs without.
The mark [7] stands for this setting: blend with Caprylic Capric Triglyceride (CCT) (neutral oil), rows r187-r195.

As for `CCCCCCC(O)CO` (stereo not drawn) [1,2-octanediol], the “number of microorganisms after 2 days” value in data set [1] (0.1% in wet wipes solution) is on record as 425; in [1] (0.2% in o/w emulsion), 1; in data set [2] (0.1% in wet wipes solution), 1,300,000; in data set [2] (0.2% in o/w emulsion) it was 1; in data set [3] (0.1% in wet wipes solution), 22,000,000; in [3] (0.2% in o/w emulsion), 2,400,000. The “number of microorganisms after 2 days” value is on record as 4,700,000 in the data set with Candida albicans (CA) (0.1% in wet wipes solution), 950,000 with Candida albicans (CA) (0.2% in o/w emulsion), 1,300,000 in the data set on Escherichia coli (EC) (0.1% in wet wipes solution) and 1 with Escherichia coli (EC) (0.2% in o/w emulsion). Also, the “number of microorganisms after 7 days” value was 50 in data set [1] (0.1% in wet wipes solution); 1 in data set [1] (0.2% in o/w emulsion); 2,500,000 in [2] (0.1% in wet wipes solution); 1 in data set [2] (0.2% in o/w emulsion); 8,500,000 in data set [3] (0.1% in wet wipes solution); 2,700,000 in [3] (0.2% in o/w emulsion). Moreover, the “number of microorganisms after 7 days” value in the data set with Candida albicans (CA) (0.1% in wet wipes solution) is 3,900,000; with Candida albicans (CA) (0.2% in o/w emulsion), 15,000; in the data set on Escherichia coli (EC) (0.1% in wet wipes solution), 3,500,000; in the data set on Escherichia coli (EC) (0.2% in o/w emulsion) it was 1. The “number of microorganisms after 14 days” value is reported as 50 in data set [1] (0.1% in wet wipes solution); 1 in data set [1] (0.2% in o/w emulsion); 750,000 in data set [2] (0.1% in wet wipes solution); 1 in [2] (0.2% in o/w emulsion); 11,000,000 in data set [3] (0.1% in wet wipes solution); 2,100,000 in data set [3] (0.2% in o/w emulsion). Also, the “number of microorganisms after 14 days” value is 5,800,000 in the data set with Candida albicans (CA) (0.1% in wet wipes solution), 36 in the data set on Candida albicans (CA) (0.2% in o/w emulsion), 2,100,000 in the data set on Escherichia coli (EC) (0.1% in wet wipes solution) and 1 in the data set with Escherichia coli (EC) (0.2% in o/w emulsion). Further, the “number of microorganisms after 28 days” value is listed as 50 in [1] (0.1% in wet wipes solution); 1 in [1] (0.2% in o/w emulsion); 350,000 in data set [2] (0.1% in wet wipes solution); 1 in [2] (0.2% in o/w emulsion); 12,000,000 in data set [3] (0.1% in wet wipes solution); 1,200,000 in data set [3] (0.2% in o/w emulsion). Also, the “number of microorganisms after 28 days” value in the data set on Candida albicans (CA) (0.1% in wet wipes solution) is on record as 9,300,000; in the data set with Candida albicans (CA) (0.2% in o/w emulsion), 1; with Escherichia coli (EC) (0.1% in wet wipes solution) it was 2,300; with Escherichia coli (EC) (0.2% in o/w emulsion), 1. For the same compound, the “Absorption/remaining residue Delta” value in [4] (blend with Argan Oil vs without) is 1.2; in [4] (blend with Avocado Oil vs without) it was 1.2; in [4] (blend with Cacao butter vs without) it was 0.6; in data set [4] (blend with Castor Oil vs without), 1; in [4] (blend with Coconut Oil vs without) it was 0.8; in data set [4] (blend with Grapeseed Oil vs without) it was 1. The “Absorption/remaining residue Delta” value in [4] (blend with Helianthus Annuus (Sunflower) Seed Oil vs without) is listed as 1.8; in [4] (blend with Octocrylene (Neo Heliopan 303), vs without), 0.5; in data set [4] (blend with Olive Oil vs without), 1.4. The “Absorption/remaining residue with alkanediol” value was 2.6 in data set [4] (blend with Argan Oil); 2.6 in data set [4] (blend with Avocado Oil); 3 in data set [4] (blend with Cacao butter); 3.4 in data set [4] (blend with Castor Oil); 3 in data set [4] (blend with Coconut Oil); 1.6 in [4] (blend with Grapeseed Oil). For the same compound, the entries for the “Absorption/remaining residue with alkanediol” value in [4] (blend with Helianthus Annuus (Sunflower) Seed Oil), in data set [4] (blend with Octocrylene (Neo Heliopan 303)) and in data set [4] (blend with Olive Oil) were 2, 3.5 and 2.6, respectively. In addition, the MIC in the data set on Aspergillus brasiliensis (setting [5]) amounted to 2500 µg/mL; in the data set on Staphylococcus aureus, 2500 µg/mL (≈ 17100 µM); in the data set on Escherichia coli, 5000 µg/mL (≈ 34200 µM); in the data set on Candida albicans it was 2500 µg/mL (≈ 17100 µM); in the data set with Staphylococcus hominis, 5000 µg/mL (≈ 34200 µM); with Corynebacterium jeikeium, 5000 µg/mL (≈ 34200 µM).

Take `CCCCCCCCC(O)C(C)O` (stereo not drawn) [2,3-Undecanediol, 2,3-undecanediol]: the sebum reduction result in the data set on human sebaceous glands is on record as “more than 50%”. The MIC is 250 µg/mL (≈ 1330 µM) with Staphylococcus aureus; 500 µg/mL (≈ 2660 µM) with Escherichia coli; 250 µg/mL (≈ 1330 µM) with Candida albicans; 250 µg/mL (≈ 1330 µM) in the data set with Staphylococcus hominis; 250 µg/mL (≈ 1330 µM) with Propionibacterium acnes; 250 µg/mL (≈ 1330 µM) in the data set on Corynebacterium jeikeium.

On to `CCCCC(O)CO` (stereo not drawn) [1,2-hexanediol], for which, in [4] (setting [6]), the “Absorption/remaining residue Delta” value is listed as 1.8. For the same compound, in data set [4] (setting [7]), the “Absorption/remaining residue with alkanediol” value was found to be 2.8. Moreover, the MIC in the data set on Aspergillus brasiliensis (setting [5]) was 7500 µg/mL.

In the case of `CCCCCCCCC(O)CO` (stereo not drawn) [1,2-Decanediol, 1,2-decanediol, reference compound], the MIC is 250 µg/mL (≈ 1430 µM) with Staphylococcus aureus; 250 µg/mL (≈ 1430 µM) with Escherichia coli; 250 µg/mL (≈ 1430 µM) with Candida albicans; 500 µg/mL (≈ 2870 µM) in the data set on Staphylococcus hominis; 500 µg/mL (≈ 2870 µM) with Propionibacterium acnes; 2500 µg/mL (≈ 14300 µM) in the data set with Corynebacterium jeikeium.

As to `CCCCCCCCCC(O)CO` (stereo not drawn) [1,2-undecanediol], the sebum reduction in the data set on human sebaceous glands is 44%.

`CCCC(O)C(C)O` (stereo not drawn) [2,3-hexandiol, 2,3-hexanediol]: the “Absorption/remaining residue Delta” value in [4] (setting [6]) was 1.8. Further, in [4] (setting [7]), the “Absorption/remaining residue with alkanediol” value was 2.8. For the same compound, in the data set with Aspergillus brasiliensis (single 2,3-alkanediol, read-out: MIC Component B), the MIC was 20000 µg/mL.

The values are drawn from patent US20230248626A1, “Compositions Comprising (Bio)-Alkanediols” (Symrise AG, priority 0001, published 2023).
